In US9023821B2, “Use of MicroRNA for treating diseases associated with a dysfunction of the cilia in multiciliated epithelial cells” (Centre National de la Recherche Scientifique, priority 2009, dated 2015):

Columns and labels:
[1] = test system: human airway epithelial cells (HAECs); experiment: High-throughput sequencing (HTS) of miRNAs at four stages of differentiation of HAECs; conditions: for Modulation (ratio of the level of intensity of expression in log2 in two stages of differentiation) measured by high-throughput sequencing, D7 − D0 / Modulation (ratio of the level of intensity of expression in log2 in two stages of differentiation) measured by high-throughput sequencing, FC − D7 / Modulation (ratio of the level of intensity of expression in log2 in two stages of differentiation) measured by high-throughput sequencing, WD − D0 / Modulation (ratio of the level of intensity of expression in log2 in two stages of differentiation) measured by high-throughput sequencing, WD − FC / Level of intensity of expression in log2 measured by high-throughput sequencing, D0 / Level of intensity of expression in log2 measured by high-throughput sequencing, D7 / Level of intensity of expression in log2 measured by high-throughput sequencing, FC / Level of intensity of expression in log2 measured by high-throughput sequencing, WD: Table VI; for Level of intensity of expression in log2 At the differentiated stage (WD) measured in HTS: healthy human airway epithelial tissue; for Level of intensity of expression in log2 measured by high-throughput sequencing, D0: stage D0; for Level of intensity of expression in log2 measured by high-throughput sequencing, D7: stage D7; for Level of intensity of expression in log2 measured by high-throughput sequencing, FC: stage FC; for Level of intensity of expression in log2 At the differentiated stage (WD) measured in HTS / Level of intensity of expression in log2 measured by high-throughput sequencing, WD: stage WD
Description: The total RNAs were extracted from HAECs cultivated at the air-liquid interface at four stages of differentiation: ALI-D0 (0 day), ALI-D7 (7 days), ALI-FC (during appearance of the first cilia at about 14 days) and ALI-WD (wholly differentiated at about 21 days). The cells are lysed in reagent with Trizol® (Invitrogen). The total RNAs containing small RNAs and microRNAs are purified on Qiagen RNEasy columns (Qiagen) according to the supplier's instructions.
The total RNAs containing small RNAs and microRNAs are isolated as before. The procedure is based on the Applied Biosystems Ligase-Enhanced Genome Detection technology (LEGenD™); the SOLiD™ Small RNA Expression kit (Applied Biosystems, France) was used. With this method it is possible to convert the small RNAs of a sample into a library of double-stranded DNA; it was developed by Applied Biosystems SOLiD™ System for a new generation of high-throughput sequencing.
The high-throughput sequencing of the microRNAs was carried out according to the supplier's recommendations. Briefly, the total RNAs containing the small RNAs are hybridized (65° C., 10 min, then at 16° C., 5 min) and ligated (16° C., 2-16 h in a thermocycler) with the Adaptor Mix A for producing a matrix for sequencing the 5′ end of the small RNAs, or with the Adaptor Mix B for sequencing the 3′ end. The samples are then reverse-transcribed (42° C., 30 min) to synthesize the complementary DNA (cDNA). The library of small RNAs is amplified by PCR and after migration on polyacrylamide gel the amplified small RNAs are cut out and extracted from the gel according to their size (length of about 105-150 bases, according to the supplier's instructions), eluted and resuspended in nuclease-free water. The concentration of nucleic acids is then measured and normalized before proceeding with preparation of the samples for sequencing.
For each microRNA sequenced, the number of sequences of the 5p strand and of the 3p strand of the microRNA was normalized to 10^6 sequences and converted to percentage abundance of expression for each of the microRNAs. The data were then normalized according to a linear model and an empirical Bayesian method using software R. For subsequent analyses, only the microRNAs were retained for which the percentage expression (or abundance) is greater than 1% of the total of the microRNAs in at least one culture condition, with a |Log2 Ratio| below 0.5 and an adjusted P-value below 0.05.

[2] = test system: basal cells and pyramidal cells of the airway epithelium; experiment: miRNA expression in sorted basal cells versus pyramidal cells (ciliated + secretory), HTS and Agilent chips; design: species or system human; conditions: for Modulation of expression of the miRNAs in pyramidal cells (323(−)) relative to basal cells 323(+): HTS and Agilent chips; for Intensity of the level of expression in log2 in pyramidal cells (323(−)): pyramidal cells (ciliated + secretory)
Method: After dissociation of the stroma of nasal polyps, the epithelial cells (about 20.10^6) are incubated in PBS-BSA-EDTA for 30 min and then incubated with labeled antibody CD151-PE and anti-TF (tissue factor)-FITC for 20 min, 4° C. (see Hajj, R. et al., Stem Cells 25, 139-148 (2007)). After washing twice, the cells are taken up in PBS-EDTA and incubated with DAPI for labeling the cells whose integrity has been altered.
Cell sorting was carried out on the FACSAria sorter (BD Biosciences) equipped with 3 lasers, blue, red and violet. Dead cells, aggregates and double cells were excluded. The doubly positive population of basal cells (CD151+/FT+) and the negative population of cylindrical cells (containing ciliated cells and mucus-secreting cells) (CD151−/FT−) were selected and sorted at a rate of 5000 events/s ([…]). The purity and identity of the sorted cells were then verified by cytometry and immunocytochemistry.
Like the native airway epithelium, the model of differentiation in vitro used in these tests consists of basal cells, ciliated cells and mucus-secreting cells. In order to identify the repertoires of the miRNAs specific to each of the cellular types, the inventors used cell sorting by flow cytometry by means of specific markers (Hajj, R. et al. 2007). Using this technique, adult airway progenitor cells (corresponding a priori to basal cells) were isolated, selected and sorted (such cells appear doubly positive for tetraspanin CD151 and for the tissue factor) from the pyramidal cells (i.e. ciliated cells and mucus-secreting cells) which appear negative for these same markers. These were purified from polyps or from nasal conchae obtained from 3 separate donors.
After extracting the total RNAs, the expression profiles of the miRNAs were established by means of Agilent® commercial chips or by high-throughput sequencing (HTS). […] For the first time, the inventors thus attribute a repertoire of expression of the miRNAs specifically to separate cellular types of the airway epithelium during differentiation.

[3] = test system: human airway epithelial cells (HAECs); experiment: Agilent miRNA chips, miRNA expression at four stages of differentiation of HAECs; conditions: for Modulation (ratio of the level of intensity of expression in log2 in two stages of differentiation) measured with the Agilent chips, D7 − D0 / Modulation (ratio of the level of intensity of expression in log2 in two stages of differentiation) measured with the Agilent chips, FC − D7 / Modulation (ratio of the level of intensity of expression in log2 in two stages of differentiation) measured with the Agilent chips, WD − D0 / Modulation (ratio of the level of intensity of expression in log2 in two stages of differentiation) measured with the Agilent chips, WD − FC / Level of intensity of expression in log2 measured with the Agilent chips, D0 / Level of intensity of expression in log2 measured with the Agilent chips, D7 / Level of intensity of expression in log2 measured with the Agilent chips, FC / Level of intensity of expression in log2 measured with the Agilent chips, WD: Table VI; for Level of intensity of expression in log2 measured with the Agilent chips, D0: stage D0; for Level of intensity of expression in log2 measured with the Agilent chips, D7: stage D7; for Level of intensity of expression in log2 measured with the Agilent chips, FC: stage FC; for Level of intensity of expression in log2 measured with the Agilent chips, WD: stage WD
Description: In parallel with the high-throughput sequencing of the microRNAs, the repertoire of expression of the microRNAs (microRNAome) is investigated using the technology of Agilent® microRNA chips. For this, RNA samples from the same patients as before were used, labeled and hybridized on Agilent® miRNA chips (Human miRNA Microarray v2, containing 866 human miRNAs and 89 human viral miRNAs, i.e. all the human miRNAs contained and referenced in Sanger miRBase v.12.0, Agilent Technologies, France) using the “miRNA labeling and hybridization” kit, following the supplier's instructions (Agilent Technologies).
The inventors then used the Agilent miRNA chips to investigate the repertoire of expression of the miRNAs of the human airway epithelium and compare the results obtained in high-throughput sequencing with those obtained with Agilent® commercial miRNA chips.

| Substance | Modulation (ratio of the level of intensity of expression in log2 in two stages of differentiation) measured by high-throughput sequencing, D7 − D0 [1] | Modulation (ratio of the level of intensity of expression in log2 in two stages of differentiation) measured by high-throughput sequencing, FC − D7 [1] | Modulation (ratio of the level of intensity of expression in log2 in two stages of differentiation) measured by high-throughput sequencing, WD − D0 [1] | Modulation (ratio of the level of intensity of expression in log2 in two stages of differentiation) measured by high-throughput sequencing, WD − FC [1] | Level of intensity of expression in log2 At the differentiated stage (WD) measured in HTS [1] | Level of intensity of expression in log2 measured by high-throughput sequencing, D0 [1] | Level of intensity of expression in log2 measured by high-throughput sequencing, D7 [1] | Level of intensity of expression in log2 measured by high-throughput sequencing, FC [1] | Level of intensity of expression in log2 measured by high-throughput sequencing, WD [1] | Modulation of expression of the miRNAs in pyramidal cells (323(−)) relative to basal cells 323(+) [2] | Intensity of the level of expression in log2 in basal cells (323(+)) [2] | Intensity of the level of expression in log2 in pyramidal cells (323(−)) [2] | Modulation (ratio of the level of intensity of expression in log2 in two stages of differentiation) measured with the Agilent chips, D7 − D0 [3] | Modulation (ratio of the level of intensity of expression in log2 in two stages of differentiation) measured with the Agilent chips, FC − D7 ([3]; FC − D7) | Modulation (ratio of the level of intensity of expression in log2 in two stages of differentiation) measured with the Agilent chips, WD − D0 [3] | Modulation (ratio of the level of intensity of expression in log2 in two stages of differentiation) measured with the Agilent chips, WD − FC ([3]; WD − FC) | Level of intensity of expression in log2 measured with the Agilent chips, D0 [3] | Level of intensity of expression in log2 measured with the Agilent chips, D7 [3] | Level of intensity of expression in log2 measured with the Agilent chips, FC [3] | Level of intensity of expression in log2 measured with the Agilent chips, WD [3] | further results |
| --- | --- | --- | --- | --- | --- | --- | --- | --- | --- | --- | --- | --- | --- | --- | --- | --- | --- | --- | --- | --- | --- |
| hsa-miR-16: human miRNA, SEQ ID No. 10 (UAGCAGCACGUAAAUAUUGGCG; expressed or natural sequence; listed as Homo sapiens) | 2.01 log2 | −1.17 log2 | 2.22 log2 | 1.38 log2 | 5.35 log2 | 3.13 log2 | 5.14 log2 | 3.97 log2 | 5.35 log2 | −0.48 | 9.10 log2 | 8.62 log2 | 2.07 log2 | −0.36 log2 | 1.59 log2 | −0.11 log2 | 9.47 log2 | 11.54 log2 | 11.18 log2 | 11.06 log2 | Modulation (ratio of the level of intensity of expression in log2 at two stages of differentiation), FC − D7 ([3]; FC − D7, Agilent miRNA chips, Table V): −0.36 log2; Modulation (ratio of the level of intensity of expression in log2 at two stages of differentiation), WD − FC ([3]; WD − FC, Agilent miRNA chips, Table V): −0.11 log2 |
| hsa-miR-17: human miRNA, SEQ ID No. 11 (CAAAGUGCUUACAGUGCAGGUAG; expressed or natural sequence; listed as Homo sapiens) | −0.17 log2 | −0.87 log2 | −1.24 log2 | −0.20 log2 | 11.61 log2 | 12.85 log2 | 12.68 log2 | 11.81 log2 | 11.61 log2 | −2.60 | 6.64 log2 | 4.04 log2 | 0.31 log2 | −1.14 log2 | −1.22 log2 | −0.39 log2 | 9.03 log2 | 9.34 log2 | 8.19 log2 | 7.81 log2 | Modulation (ratio of the level of intensity of expression in log2 in two stages of differentiation), D7 − D0 ([1]; HTS): −0.17 log2; Modulation (ratio of the level of intensity of expression in log2 in two stages of differentiation), FC − D7 ([1]; HTS): −0.87 log2; Modulation (ratio of the level of intensity of expression in log2 in two stages of differentiation), WD − FC ([1]; HTS): −0.20 log2; Abundance (%), D0 ([1]; HTS, ALI-D0): 1.61%; Abundance (%), D7 ([1]; HTS, ALI-D7): 1.44%; Abundance (%), FC ([1]; HTS, ALI-FC): 0.76%; Abundance (%), WD ([1]; HTS, ALI-WD): 0.50% |
